Legend:
SNU-5 cells = test: 72-hour MTT experiment in SNU-5 gastric cancer cell line; assay type: cell-based; settings: Homo sapiens, SNU-5, MET-amplified cell line
KATO-III cell line = test: 72-hour MTT experiment in KATO-III gastric cancer cell line; assay type: cell-based; settings: Homo sapiens, FGFR2-amplified cell line

IC50 (SNU-5 cells) [nM]	IC50 (KATO-III cell line) [nM]	Structure (SMILES)
17.5	22.6	C[C@@H](Oc1cc(-c2cnn(C3CCNCC3)c2)cnc1N)c1c(Cl)ccc(F)c1Cl [crizotinib]
> 40	31	COCc1c(-c2cc3cc(C)cc(OC)c3s2)c2c(N)ncnn2c1CN1CCNC(=O)C1 [rogaratinib]

Reference: US20240085426A1, “TRIPLE QUADRUPOLE-BASED MULTIPLE REACTION MONITORING FOR CLINICAL THERAPEUTIC RESPONSE PREDICTION IN CANCER” (NATIONAL CANCER CENTER, priority 2020, published 2024)
